These results are taken from patent US20250236609A1, “VPS34 INHIBITORS AND METHODS OF USE THEREOF” (Deciphera Pharmaceuticals, LLC, priority 2023, published 2025).

The target of assay [1] is VPS34 (Homo sapiens (Human), UniProt Q8NEB9). Briefly: Biochemical Assay for VPS34 (ADP-Glo kinase activity assay). To be noted: 25 nM VPS34, 1 mM ATP, 1-hour incubation at 37° C.; read-out: VPS34 (Inhibition of biochemical activity of VPS34, IC50). The protocol: Activity of VPS34 kinase was determined using an ADP-Glo kinase activity assay (Promega Corp). Assays were conducted in 384-well plates (5 μL assay volume) using 25 nM VPS34 (ThermoFisher Scientific), […] PI:3PS Lipid Kinase Substrate (Promega Corp.), and 1 mM ATP in kinase buffer. Inhibition of VPS34 was measured by adding serial diluted test compound (final assay concentration of 0.1% DMSO) followed by a 1-hour incubation at 37° C. ADP-Glo reagent was then added ([…]) followed by a 40 min incubation at rt. Kinase detection reagent was then added ([…]) and followed by a 60 min incubation at rt. Luminescence was then detected. The RLU at each compound concentration of was converted to percent inhibition using controls (i.e., reaction with no test compound and reaction with a known inhibitor) and IC50 values were calculated by fitting a four-parameter sigmoidal curve to the data using GeneData Screener software.
VPS34 Protein Sequence (Full Length with GST Tag)

Assay [2] deals with PI3K (p110α/p65α) (Homo sapiens (Human), UniProt P42336). Briefly: Lipid kinase selectivity panel (Reaction Biology). The conditions noted are these: 1 μM compound, single dose duplicates, 10 μM ATP; read-out: Percent inhibition relative to DMSO control, PI3K (p110α/p65α). It counts as biochemical. As for the experimental part:
(§1) The compounds of the present invention were tested in a standard lipid kinase selectivity panel: 16 other lipid kinases (Reaction Biology, Malvern, PA, USA), under conditions of non-disclosure, non-dissemination, and non-use. In brief, compounds (see Table 2) were tested at in single dose duplicates at 1 μM against lipid kinases, including PI3Kα, PI3Kβ, and PI3Kδ, and reactions were carried out at 10 μM ATP.

The target in assay [3] is PI3Kα (p110α/p85α) (Homo sapiens (Human), UniProt P42336). In words: Lipid kinase selectivity panel (Reaction Biology). It counts as biochemical. To be noted: 1 μM compound, single dose duplicates, 10 μM ATP; read-out: Percent inhibition relative to DMSO control, PI3Kα (p110α/p85α). The protocol:
as §1

In assay [4] the target is PI3Kg (p110γ) (Homo sapiens (Human), UniProt P48736). In words: Lipid kinase selectivity panel (Reaction Biology). The format is biochemical. The conditions noted are these: 1 μM compound, single dose duplicates, 10 μM ATP; read-out: Percent inhibition relative to DMSO control, PI3Kg (p110γ). As for the experimental part:
as §1

Assay [5] addresses PI3K (p110α (E545K)/p85α) (Homo sapiens (Human), UniProt P42336, E545K). Briefly: Lipid kinase selectivity panel (Reaction Biology). It counts as biochemical. To be noted: 1 μM compound, single dose duplicates, 10 μM ATP; read-out: Percent inhibition relative to DMSO control, PI3K (p110α (E545K)/p85α). As for the experimental part:
as §1

In assay [6] the target is PI3K (p110α (H1047R)/p85α) (Homo sapiens (Human), UniProt P42336, H1047R). Briefly: Lipid kinase selectivity panel (Reaction Biology). The format is biochemical. To be noted: 1 μM compound, single dose duplicates, 10 μM ATP; read-out: Percent inhibition relative to DMSO control, PI3K (p110α (H1047R)/p85α). The protocol: as §1
Sequence of PI3K (p110α (H1047R)/p85α) (P42336 whole entry H1047R): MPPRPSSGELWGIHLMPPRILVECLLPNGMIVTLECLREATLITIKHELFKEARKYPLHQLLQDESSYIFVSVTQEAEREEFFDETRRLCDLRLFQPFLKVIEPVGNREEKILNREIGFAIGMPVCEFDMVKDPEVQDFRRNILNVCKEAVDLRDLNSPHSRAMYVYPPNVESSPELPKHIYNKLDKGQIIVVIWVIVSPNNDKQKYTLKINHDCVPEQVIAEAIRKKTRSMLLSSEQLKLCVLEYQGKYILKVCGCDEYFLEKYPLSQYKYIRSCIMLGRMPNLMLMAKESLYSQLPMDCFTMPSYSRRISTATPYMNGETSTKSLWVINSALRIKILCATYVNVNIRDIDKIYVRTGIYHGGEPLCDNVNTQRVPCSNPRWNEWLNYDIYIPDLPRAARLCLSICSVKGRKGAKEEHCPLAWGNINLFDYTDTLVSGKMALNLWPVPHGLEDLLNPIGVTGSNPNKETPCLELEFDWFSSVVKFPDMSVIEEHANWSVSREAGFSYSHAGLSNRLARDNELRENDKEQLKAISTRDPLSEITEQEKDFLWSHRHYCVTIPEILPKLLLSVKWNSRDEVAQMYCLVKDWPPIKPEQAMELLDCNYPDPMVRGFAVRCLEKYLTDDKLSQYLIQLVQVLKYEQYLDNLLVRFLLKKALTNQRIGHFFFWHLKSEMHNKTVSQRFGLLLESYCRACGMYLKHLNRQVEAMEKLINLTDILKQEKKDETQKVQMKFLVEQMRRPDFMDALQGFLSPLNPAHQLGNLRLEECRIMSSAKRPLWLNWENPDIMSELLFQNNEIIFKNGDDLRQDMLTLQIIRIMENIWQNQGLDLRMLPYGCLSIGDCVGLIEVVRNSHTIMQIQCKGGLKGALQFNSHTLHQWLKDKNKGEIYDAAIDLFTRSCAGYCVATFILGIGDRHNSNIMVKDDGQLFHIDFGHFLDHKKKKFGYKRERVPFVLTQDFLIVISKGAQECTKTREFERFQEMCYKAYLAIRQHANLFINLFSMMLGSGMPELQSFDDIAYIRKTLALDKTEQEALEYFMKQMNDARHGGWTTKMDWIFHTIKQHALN
Sequence of PI3K (p110α (H1047R)/p85α) (P27986 whole entry partner): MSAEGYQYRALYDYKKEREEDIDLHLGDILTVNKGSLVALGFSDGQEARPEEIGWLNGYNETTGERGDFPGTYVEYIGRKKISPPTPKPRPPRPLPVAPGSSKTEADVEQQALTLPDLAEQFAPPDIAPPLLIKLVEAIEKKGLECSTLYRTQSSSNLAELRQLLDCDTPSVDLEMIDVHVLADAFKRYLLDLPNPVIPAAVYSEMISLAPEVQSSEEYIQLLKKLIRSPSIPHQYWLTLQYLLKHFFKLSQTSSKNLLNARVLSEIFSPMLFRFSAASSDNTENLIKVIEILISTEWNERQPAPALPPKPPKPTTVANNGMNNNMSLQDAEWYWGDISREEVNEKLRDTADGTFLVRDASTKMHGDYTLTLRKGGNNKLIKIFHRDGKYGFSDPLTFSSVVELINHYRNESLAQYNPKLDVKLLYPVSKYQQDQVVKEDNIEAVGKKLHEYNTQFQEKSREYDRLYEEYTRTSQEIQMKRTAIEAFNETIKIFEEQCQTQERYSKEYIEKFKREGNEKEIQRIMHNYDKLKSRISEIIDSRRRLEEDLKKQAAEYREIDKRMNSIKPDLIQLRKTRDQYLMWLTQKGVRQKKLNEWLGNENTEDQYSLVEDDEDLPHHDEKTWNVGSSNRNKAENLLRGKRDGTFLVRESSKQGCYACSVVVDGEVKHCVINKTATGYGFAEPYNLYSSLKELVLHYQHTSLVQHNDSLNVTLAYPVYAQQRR
Assay [7] deals with PI3Kd (p110δ/p85α) (Homo sapiens (Human), UniProt O00329). Briefly: Lipid kinase selectivity panel (Reaction Biology). The format is biochemical. The conditions noted are these: 1 μM compound, single dose duplicates, 10 μM ATP; read-out: Percent inhibition relative to DMSO control, PI3Kd (p110δ/p85α). The protocol: as §1
Sequence of PI3Kd (p110δ/p85α) (O00329 whole entry, species assumed): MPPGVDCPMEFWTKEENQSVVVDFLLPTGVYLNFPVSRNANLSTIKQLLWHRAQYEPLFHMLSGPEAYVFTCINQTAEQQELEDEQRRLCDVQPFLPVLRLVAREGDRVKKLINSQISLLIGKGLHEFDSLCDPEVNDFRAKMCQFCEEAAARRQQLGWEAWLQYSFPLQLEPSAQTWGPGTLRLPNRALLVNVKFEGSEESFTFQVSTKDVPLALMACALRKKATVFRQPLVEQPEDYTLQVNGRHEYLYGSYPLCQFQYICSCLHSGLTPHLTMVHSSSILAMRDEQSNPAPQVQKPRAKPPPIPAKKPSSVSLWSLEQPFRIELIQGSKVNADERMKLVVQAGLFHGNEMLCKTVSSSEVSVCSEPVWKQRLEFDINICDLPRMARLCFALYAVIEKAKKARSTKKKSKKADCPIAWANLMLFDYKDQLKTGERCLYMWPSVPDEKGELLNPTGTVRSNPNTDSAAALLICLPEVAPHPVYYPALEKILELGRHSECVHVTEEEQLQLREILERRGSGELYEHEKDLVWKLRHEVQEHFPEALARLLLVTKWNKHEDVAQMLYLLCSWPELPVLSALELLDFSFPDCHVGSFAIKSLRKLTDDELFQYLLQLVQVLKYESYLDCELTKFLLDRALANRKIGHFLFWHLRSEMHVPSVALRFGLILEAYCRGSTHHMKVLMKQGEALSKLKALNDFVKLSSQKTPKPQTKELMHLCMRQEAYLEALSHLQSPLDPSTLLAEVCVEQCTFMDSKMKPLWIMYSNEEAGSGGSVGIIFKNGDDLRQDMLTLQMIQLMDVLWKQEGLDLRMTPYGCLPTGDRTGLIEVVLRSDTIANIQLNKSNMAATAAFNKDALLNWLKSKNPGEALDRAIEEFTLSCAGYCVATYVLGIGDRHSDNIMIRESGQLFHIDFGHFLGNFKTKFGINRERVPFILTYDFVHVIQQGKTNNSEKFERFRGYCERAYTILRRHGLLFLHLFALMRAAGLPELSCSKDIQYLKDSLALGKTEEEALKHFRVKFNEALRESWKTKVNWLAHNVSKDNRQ
Sequence of PI3Kd (p110δ/p85α) (P27986 whole entry partner, species assumed): as the sequence (P27986 whole entry partner) above
Assay [8] concerns the target PI3KC2α (Homo sapiens (Human), UniProt O00443). In words: Lipid kinase selectivity panel (Reaction Biology). It counts as biochemical. The conditions noted are these: 1 μM compound, single dose duplicates, 10 μM ATP; read-out: Percent inhibition relative to DMSO control, PI3KC2α. The protocol:
as §1

In assay [9] the target is PI3Kb (p110β/p85α) (Homo sapiens (Human), UniProt P42338). Briefly: Lipid kinase selectivity panel (Reaction Biology). It counts as biochemical. To be noted: 1 μM compound, single dose duplicates, 10 μM ATP; read-out: Percent inhibition relative to DMSO control, PI3Kb (p110β/p85α). As for the experimental part:
as §1

For assay [10], the target named is PI3K (p110α (E542K)/p85α) (Homo sapiens (Human), UniProt P42336, E542K). Briefly: Lipid kinase selectivity panel (Reaction Biology). It counts as biochemical. To be noted: 1 μM compound, single dose duplicates, 10 μM ATP; read-out: Percent inhibition relative to DMSO control, PI3K (p110α (E542K)/p85α). The protocol: as §1
Sequence of PI3K (p110α (E542K)/p85α) (P42336 whole entry E542K): as the sequence (P42336 whole entry H1047R) above, with E542K, R1047H counted along it
Sequence of PI3K (p110α (E542K)/p85α) (P27986 whole entry partner): as the sequence (P27986 whole entry partner) above

Sequence of PI3K (p110α/p65α) (P42336 whole entry, species assumed): as the sequence (P42336 whole entry H1047R) above, with R1047H counted along it
Sequence of PI3Kα (p110α/p85α) (P42336 whole entry, species assumed): as the sequence (P42336 whole entry H1047R) above, with R1047H counted along it
Sequence of PI3Kα (p110α/p85α) (P27986 whole entry partner, species assumed): as the sequence (P27986 whole entry partner) above
Sequence of PI3KC2α (O00443 whole entry, species assumed): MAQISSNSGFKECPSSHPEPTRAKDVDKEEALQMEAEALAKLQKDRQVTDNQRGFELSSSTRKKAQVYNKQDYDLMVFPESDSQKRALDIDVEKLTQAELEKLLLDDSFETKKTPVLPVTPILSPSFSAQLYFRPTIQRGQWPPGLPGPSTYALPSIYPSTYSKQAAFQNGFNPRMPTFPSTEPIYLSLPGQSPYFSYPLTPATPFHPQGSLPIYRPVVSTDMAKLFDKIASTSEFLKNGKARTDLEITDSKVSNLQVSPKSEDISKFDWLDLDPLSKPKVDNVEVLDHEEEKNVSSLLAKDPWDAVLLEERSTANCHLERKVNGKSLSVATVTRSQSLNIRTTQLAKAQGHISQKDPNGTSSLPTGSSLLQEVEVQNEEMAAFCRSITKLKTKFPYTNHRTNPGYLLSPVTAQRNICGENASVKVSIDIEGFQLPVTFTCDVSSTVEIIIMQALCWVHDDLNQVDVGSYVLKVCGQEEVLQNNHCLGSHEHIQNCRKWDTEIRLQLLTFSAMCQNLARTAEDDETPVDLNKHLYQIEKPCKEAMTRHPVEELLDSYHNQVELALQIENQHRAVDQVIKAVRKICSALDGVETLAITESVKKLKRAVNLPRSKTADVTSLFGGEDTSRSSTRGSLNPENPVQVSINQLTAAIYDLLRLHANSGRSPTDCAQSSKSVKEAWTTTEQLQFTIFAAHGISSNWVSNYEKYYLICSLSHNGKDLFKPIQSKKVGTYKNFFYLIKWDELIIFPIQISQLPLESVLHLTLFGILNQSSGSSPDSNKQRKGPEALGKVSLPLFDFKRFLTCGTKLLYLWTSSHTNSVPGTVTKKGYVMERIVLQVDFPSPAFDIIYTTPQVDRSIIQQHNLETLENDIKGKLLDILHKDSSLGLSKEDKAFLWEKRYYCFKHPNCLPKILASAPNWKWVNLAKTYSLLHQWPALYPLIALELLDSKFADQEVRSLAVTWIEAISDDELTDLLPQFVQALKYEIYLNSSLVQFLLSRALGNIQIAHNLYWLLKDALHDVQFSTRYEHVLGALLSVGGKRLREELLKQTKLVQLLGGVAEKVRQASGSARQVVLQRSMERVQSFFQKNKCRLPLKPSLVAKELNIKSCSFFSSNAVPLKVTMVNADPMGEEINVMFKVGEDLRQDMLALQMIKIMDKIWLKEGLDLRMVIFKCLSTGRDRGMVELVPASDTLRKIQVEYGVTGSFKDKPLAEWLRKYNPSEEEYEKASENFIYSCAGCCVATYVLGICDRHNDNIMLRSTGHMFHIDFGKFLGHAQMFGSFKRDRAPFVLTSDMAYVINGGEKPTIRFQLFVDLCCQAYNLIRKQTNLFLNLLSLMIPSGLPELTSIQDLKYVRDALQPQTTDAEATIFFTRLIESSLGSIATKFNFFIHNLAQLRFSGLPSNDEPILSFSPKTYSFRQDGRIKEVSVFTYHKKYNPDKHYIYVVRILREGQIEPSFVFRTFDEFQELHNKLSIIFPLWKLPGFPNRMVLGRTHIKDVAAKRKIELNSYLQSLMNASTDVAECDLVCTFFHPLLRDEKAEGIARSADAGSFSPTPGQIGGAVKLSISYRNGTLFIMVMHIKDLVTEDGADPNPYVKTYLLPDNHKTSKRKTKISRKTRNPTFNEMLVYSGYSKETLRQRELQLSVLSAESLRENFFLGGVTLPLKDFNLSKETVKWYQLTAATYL
Sequence of PI3K (p110α (E545K)/p85α) (P42336 whole entry E545K): as the sequence (P42336 whole entry H1047R) above, with E545K, R1047H counted along it
Sequence of PI3K (p110α (E545K)/p85α) (P27986 whole entry partner): as the sequence (P27986 whole entry partner) above

In the case of `COC(=O)Nc1cc(-c2cc(N3CCCC[C@@H]3C(F)(F)F)[nH]c(=O)c2)c(CF)cn1` [Example 18], the half-maximal inhibitory concentration (IC50) in [1] was in the range of 100 to 500 nM. Further, the inhibition at 1 µM is -2% in assay [2]; -5% in assay [3]; -13% in assay [4]; 2% in assay [5]; 16% in assay [6]; 13% in assay [7]. The inhibition at 1 µM in assay [8] was -18%; in [9] it was -3%; in [10], -1%.

`COC(=O)Nc1cc(-c2cc(-c3cccnc3C(F)(F)F)[nH]c(=O)c2)c(F)cn1` [Example 5]: the 50% inhibitory concentration (IC50) in [1] fell in the range of 100 to 500 nM. In addition, the inhibition at 1 µM in assay [2] came to 15%; in [3] it was 17%; in [4] it was 23%; in [5], 32%; in [6], 35%; in [7], 58%. Further, the inhibition at 1 µM in assay [8] is 3%; in assay [9] it was -6%; in assay [10] it was 32%.

With `COC(=O)Nc1cc(-c2cc(-c3cccnc3C(F)(F)F)[nH]c(=O)c2)c(C)cn1` [Example 78], the IC50 in [1] was 100 to 500 nM. Besides, the inhibition at 1 µM was found to be 15% in [2]; 20% in assay [3]; 30% in assay [4]; 12% in assay [5]; 8% in assay [6]; 10% in [7]. Besides, the values for the inhibition at 1 µM in assay [8], in assay [9] and in [10] were -3%, 14% and 14%, respectively.

With `O=C(Nc1cc(-c2cc(N3CCCC[C@@H]3C(F)(F)F)[nH]c(=O)c2)c(Cl)cn1)C1CC1` [Example 16], the half-inhibitory concentration (IC50) in [1] lay within 100 to 500 nM. In addition, the inhibition at 1 µM was -24% in [2]; -24% in [3]; 29% in assay [4]; -8% in [5]; 14% in assay [6]; -2% in assay [7]. Moreover, the inhibition at 1 µM in assay [8] is -11%; in assay [9], -5%; in assay [10], -2%.

With `Cc1nccc(Nc2cc(-c3cc(N4CCCC[C@@H]4C(F)(F)F)[nH]c(=O)c3)c(C)cn2)n1` [Example 77], the half-maximal inhibitory concentration (IC50) in [1] was ≤ 100 nM. Also, the inhibition at 1 µM turned out to be 24% in [2]; 30% in assay [3]; 65% in [4]; 28% in assay [5]; 22% in [6]; 17% in assay [7]. Also, the inhibition at 1 µM in assay [8] was 2%; in [9] it was 11%; in [10], 33%.

As for `COC(=O)Nc1cc(-c2cc(N3CCCC[C@@H]3C)[nH]c(=O)c2)c(C)cn1` [Example 20], the half-maximal inhibitory concentration (IC50) in [1] was in the range of 100 to 500 nM. In addition, the inhibition at 1 µM was -11% in assay [2]; -2% in assay [3]; -10% in [4]; -3% in assay [5]; -11% in assay [6]; -4% in [7]. In addition, the inhibition at 1 µM is 5% in [8], -9% in assay [9] and -5% in assay [10].

Regarding `Cc1cnc(NC(=O)CC2CNCC2(F)F)cc1-c1cc(N2CCCC[C@@H]2C(F)(F)F)[nH]c(=O)c1` (some centres unmarked) [Example 22], the IC50 in [1] fell in the range of 100 to 500 nM. Moreover, the inhibition at 1 µM in [2] is -4%; in assay [3] it was 3%; in assay [4] it was -8%; in assay [5], -1%; in assay [6] it was -4%; in assay [7], 4%. The inhibition at 1 µM was 2% in assay [8], -3% in assay [9] and -4% in [10].

On to `Cc1cnc(NC(=O)C2CC2)cc1-c1cc(N2CCCC[C@@H]2C(F)(F)F)[nH]c(=O)c1` [Example 17], for which the half-inhibitory concentration (IC50) in assay [1] was ≤ 100 nM. The inhibition at 1 µM in [2] was -17%; in [3], -15%; in assay [4] it was 7%; in assay [5] it was -5%; in [6], 6%; in assay [7], 14%. The inhibition at 1 µM in assay [8] was -21%; in [9], -10%; in assay [10] it was -3%.

`Cc1cnc(NC(=O)CC2CNC2)cc1-c1cc(N2CCCC[C@@H]2C(F)(F)F)[nH]c(=O)c1` [Example 27]: the IC50 in [1] fell in the range of 100 to 500 nM. In addition, the inhibition at 1 µM was 7% in [2]; 4% in assay [3]; -8% in [4]; 1% in assay [5]; -11% in assay [6]; 2% in assay [7]. In addition, the values for the inhibition at 1 µM in [8], in assay [9] and in assay [10] were 0%, -1% and 1%, respectively.

Take `COC(=O)Nc1cc(-c2cc(N3CCCC[C@@H]3C(F)(F)F)[nH]c(=O)c2)c(C)cn1` [Example 1, methyl (R)-(5-methyl-2′-oxo-6′-(2-(trifluoromethyl)piperidin-1-yl)-1′,2′-dihydro-[4,4′-bipyridin]-2-yl)carbamate]: the IC50 in assay [1] is ≤ 100 nM. Further, the inhibition at 1 µM was determined as 5% in assay [2]; 22% in [3]; 12% in [4]; 15% in assay [5]; 10% in [6]; 9% in [7]. For the same molecule, the inhibition at 1 µM in assay [8] was -1%; in assay [9], 13%; in assay [10] it was 4%.

For `COC(=O)Nc1cc(-c2cc(N3CCN(C(=O)CCN(C)C)C[C@@H]3C)[nH]c(=O)c2)c(C)cn1` [Example 63], the IC50 in assay [1] was in the range of 1000 to 10000 nM.

Take `CNc1cc(-c2cc(N3CCCC[C@@H]3C(F)(F)F)[nH]c(=O)c2)c(C)cn1` [Example 53]: the IC50 in [1] was 1000 to 10000 nM.

With `Cc1cnc(Nc2nnn(C)n2)cc1-c1cc(N2CCCC[C@@H]2C(F)(F)F)[nH]c(=O)c1` [Example 43], the half-maximal inhibitory concentration (IC50) in assay [1] lay in the range of 100 to 500 nM.

For the molecule `COC(=O)Nc1cc(-c2cc(-c3ccncc3C(F)(F)F)[nH]c(=O)c2)c(C)cn1` [Example 79], the 50% inhibitory concentration (IC50) in assay [1] lay within 100 to 500 nM.

`Cc1cnc(NC(=O)CC2CN(C)CC2(F)F)cc1-c1cc(N2CCCC[C@@H]2C(F)(F)F)[nH]c(=O)c1` (some centres unmarked) [Example 21]: the IC50 in assay [1] was 500 to 1000 nM.

Regarding `COC(=O)Nc1cc(-c2cc(N3CCN(C(=O)CCN(C)C)C[C@@H]3C(F)(F)F)[nH]c(=O)c2)c(C)cn1` [Example 61], the IC50 in assay [1] fell in the range of 1000 to 10000 nM.

As to `Cc1cnnc(Nc2cc(-c3cc(N4CCCC[C@@H]4C(F)(F)F)[nH]c(=O)c3)c(C)cn2)c1` [Example 40], the IC50 in assay [1] lay in the range of 500 to 1000 nM.

Turning to `Cc1cnc(Nc2cnn(C)c2)cc1-c1cc(N2CCCC[C@@H]2C(F)(F)F)[nH]c(=O)c1` [Example 29], the IC50 in [1] was in the range of 500 to 1000 nM.

For `Cc1ccc(Nc2cc(-c3cc(N4CCCC[C@@H]4C(F)(F)F)[nH]c(=O)c3)c(C)cn2)nn1` [Example 44], in [1], the IC50 was ≤ 100 nM.

Turning to `Cc1cnc(NC(=O)C2CC2)cc1-c1cc(N2CCN(S(=O)(=O)c3cnn(C)c3)C[C@@H]2C)[nH]c(=O)c1` [Example 84], the IC50 in assay [1] is ≤ 100 nM.

A word on the IC50: it is the midpoint of a concentration-inhibition curve.
